The record followed here is US8119644B2, “Thiadiazole-substituted arylamides as P2X3 and P2X2/3 antagonists” (Roche Palo Alto LLP, priority 2008, dated 2012).

In one assay the target is T1, rat P2X3 receptor (Rattus norvegicus, UniProt P49654).
T1 construct: expressed in transfected cells; host or cells: CHO-K1
T1 sequence (P49654 1-397): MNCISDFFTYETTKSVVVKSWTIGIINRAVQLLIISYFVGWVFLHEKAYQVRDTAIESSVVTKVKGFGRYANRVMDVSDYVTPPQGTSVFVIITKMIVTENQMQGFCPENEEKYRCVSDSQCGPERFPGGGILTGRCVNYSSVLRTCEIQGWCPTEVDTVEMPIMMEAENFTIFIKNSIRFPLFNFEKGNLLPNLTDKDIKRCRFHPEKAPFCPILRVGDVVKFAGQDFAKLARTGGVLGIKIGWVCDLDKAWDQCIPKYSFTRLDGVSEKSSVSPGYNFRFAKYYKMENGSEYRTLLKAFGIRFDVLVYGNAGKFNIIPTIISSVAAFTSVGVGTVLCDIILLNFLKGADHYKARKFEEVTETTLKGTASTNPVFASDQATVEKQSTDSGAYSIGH
Description: P2X3 FLIPR (Fluorometric Imaging Plate Reader) assay, CHO-K1 cells. Type of assay: cell-based. The conditions noted are these: CHO-K1 cells transfected with cloned rat P2X3; agonist α,β-meATP 1 μM; Fluo-3 calcium fluorescence; read-out: P2X3 (pKi) (converted). As to the method: (§1) P2X3/P2X2/3 FLIPR (Fluorometric Imaging Plate Reader) Assay
(§2) CHO-K1 cells were transfected with cloned rat P2X3 or human P2X2/3 receptor subunits and passaged in flasks. 18-24 hours before the FLIPR experiment, cells were released from their flasks, centrifuged, and resuspended in nutrient medium at 2.5×10^5 cells/ml. The cells were aliquoted into black-walled 96-well plates at a density of 50,000 cells/well and incubated overnight in 5% CO2 at 37° C. On the day of the experiment, cells were washed in FLIPR buffer (calcium- and magnesium-free Hank's balanced salt solution, 10 mM HEPES, 2 mM CaCl2, 2.5 mM probenecid; FB). Each well received 100 μl FB and 100 μl of the fluorescent dye Fluo-3 AM [2 μM final conc.]. After a 1 hour dye loading incubation at 37° C., the cells were washed 4 times with FB, and a final 75 μl/well FB was left in each well.
(§3) Test compounds (dissolved in DMSO at 10 mM and serially diluted with FB) or vehicle were added to each well (25 μl of a 4× solution) and allowed to equilibrate for 20 minutes at room temperature. The plates were then placed in the FLIPR and a baseline fluorescence measurement (excitation at 488 nm and emission at 510-570 nm) was obtained for 10 seconds before a 100 μl/well agonist or vehicle addition. The agonist was a 2× solution of α,β-meATP producing a final concentration of 1 μM (P2X3) or 5 μM (P2X2/3). Fluorescence was measured for an additional 2 minutes at 1 second intervals after agonist addition. A final addition of ionomycin (5 μM, final concentration) was made to each well of the FLIPR test plate to establish cell viability and maximum fluorescence of dye-bound cytosolic calcium. Peak fluorescence in response to the addition of α,β-meATP (in the absence and presence of test compounds) was measured and inhibition curves generated using nonlinear regression. PPADS, a standard P2X antagonist, was used as a positive control.

In a further assay the target is T2, human P2X2/3 receptor (Homo sapiens, UniProt P56373+Q9UBL9).
T2 construct: expressed in transfected cells; host or cells: CHO-K1
T2 sequence (Q9UBL9 1-471): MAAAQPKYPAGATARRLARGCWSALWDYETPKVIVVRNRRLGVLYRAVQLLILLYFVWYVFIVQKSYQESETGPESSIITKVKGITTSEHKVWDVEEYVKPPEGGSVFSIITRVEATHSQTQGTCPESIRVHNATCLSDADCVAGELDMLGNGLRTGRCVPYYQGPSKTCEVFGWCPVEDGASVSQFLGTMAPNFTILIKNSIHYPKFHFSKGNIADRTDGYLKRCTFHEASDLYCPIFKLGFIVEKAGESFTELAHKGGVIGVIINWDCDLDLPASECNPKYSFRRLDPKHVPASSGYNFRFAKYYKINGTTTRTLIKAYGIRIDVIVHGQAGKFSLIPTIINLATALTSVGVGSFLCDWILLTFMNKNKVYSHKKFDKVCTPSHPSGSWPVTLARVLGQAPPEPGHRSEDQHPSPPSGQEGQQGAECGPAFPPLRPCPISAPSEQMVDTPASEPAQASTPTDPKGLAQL
T2 sequence (P56373 1-397): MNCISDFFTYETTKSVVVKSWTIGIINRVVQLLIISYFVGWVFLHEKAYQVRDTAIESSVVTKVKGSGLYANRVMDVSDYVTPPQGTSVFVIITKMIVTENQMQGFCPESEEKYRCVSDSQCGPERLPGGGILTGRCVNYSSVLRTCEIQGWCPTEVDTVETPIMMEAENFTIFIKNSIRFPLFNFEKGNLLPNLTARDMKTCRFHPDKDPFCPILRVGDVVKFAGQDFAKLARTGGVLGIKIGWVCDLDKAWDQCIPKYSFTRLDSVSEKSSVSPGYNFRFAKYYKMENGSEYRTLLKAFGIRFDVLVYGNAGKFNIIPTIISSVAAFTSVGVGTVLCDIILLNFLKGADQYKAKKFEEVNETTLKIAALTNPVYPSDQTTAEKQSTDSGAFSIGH
Description: P2X2/3 FLIPR (Fluorometric Imaging Plate Reader) assay, CHO-K1 cells. Type of assay: cell-based. Conditions: CHO-K1 cells transfected with human P2X2/3; agonist α,β-meATP 5 μM; Fluo-3 calcium fluorescence; read-out: P2X2/3 (pKi) (converted). As to the method: as §1, §2, §3

For `Cc1ccc(-c2cc(C(=O)N[C@H](C)CO)cc(-c3snnc3C(C)C)c2)nc1` [Compound 4, N-((R)-2-Hydroxy-1-methyl-ethyl)-3-(4-isopropyl-[1,2,3]thiadiazol-5-yl)-5-(5-methyl-pyridin-2-yl)-benzamide], the Ki is 4.27 nM at rat P2X3 receptor and 214 nM on human P2X2/3 receptor. Taken in the same sequence, the figures for `Cc1ccc(-c2cc(C(=O)N[C@H](C)CO)cc(-c3nsnc3C(C)C)c2)nc1` [Compound 1, N-((R)-2-Hydroxy-1-methyl-ethyl)-3-(4-isopropyl-[1,2,5]thiadiazol-3-yl)-5-(5-methyl-pyridin-2-yl)-benzamide] were 6.92 nM and 72.4 nM. Consider `Cc1ccc(-c2cc(C(=O)NCc3ncc(C)cn3)cc(-c3snnc3C(C)C)c2)nc1` [Compound 6, 3-(4-Isopropyl-[1,2,3]thiadiazol-5-yl)-5-(5-methyl-pyridin-2-yl)-N-(5-methyl-pyrimidin-2-ylmethyl)-benzamide], for which the Ki at rat P2X3 receptor is 16.6 nM; at human P2X2/3 receptor, 105 nM.

Regarding `Cc1ccc(-c2cc(C(=O)NCc3cnc(C)cn3)cc(-c3snnc3C(C)C)c2)nc1` [Compound 3, 3-(4-Isopropyl-[1,2,3]thiadiazol-5-yl)-N-(5-methyl-pyrazin-2-ylmethyl)-5-(5-methyl-pyridin-2-yl)-benzamide], the Ki at rat P2X3 receptor was 9.12 nM; at human P2X2/3 receptor it was 37.2 nM.

Regarding `COCC(C)NC(=O)c1cc(-c2ccc(C)cc2)cc(-c2csnn2)c1` (stereo not shown) [Compound 2, 4′-Methyl-5-[1,2,3]thiadiazol-4-yl-biphenyl-3-carboxylic acid (2-methoxy-1-methyl-ethyl)-amide], the Ki at rat P2X3 receptor is 4680 nM.

Turning to `Cc1ccc(-c2cc(C(=O)NCc3cnc(C)cn3)cc(-c3nsnc3C(C)C)c2)nc1` [Compound 7, 3-(4-Isopropyl-[1,2,5]thiadiazol-3-yl)-N-(5-methyl-pyrazin-2-ylmethyl)-5-(5-methyl-pyridin-2-yl)-benzamide], the results for the Ki at rat P2X3 receptor and at human P2X2/3 receptor were 18.2 nM and 43.7 nM, respectively. On the same counts, the results for `Cc1ccc(-c2cc(C(=O)NCc3cnc(C)nc3)cc(-c3snnc3C(C)C)c2)nc1` [Compound 5, 3-(4-Isopropyl-[1,2,3]thiadiazol-5-yl)-5-(5-methyl-pyridin-2-yl)-N-(2-methyl-pyrimidin-5-ylmethyl)-benzamide] are 8.91 nM and 33.9 nM.
